Data: ChEMBL document CHEMBL4257490, “Development of a peptide-based bifunctional chelator conjugated to a cytotoxic drug for the treatment of melanotic melanoma” (Medchemcomm, 2018)
Active and inactive are the calls of the source. No cut-off for these calls is given here. Residues, ends and D or L forms follow the SMILES beside them. *: point of attachment. X1 = O=c1nc(N*)ccn1[C@@H]1O[C@H](CO)[C@@H](O)C1(F)F

Columns and labels:
[1] = Hemolytic activity in rat erythrocytes up to 50 uM after 1 hr relative to control; format: ADME, cell-based, Erythrocyte; details: read-out: Activity
[2] = Drug uptake in kidney of Balb/c mouse allografted with mouse B16F10 cells using 99mTc(CO)3-labeled compound at 10 to 12 MBq/kg, iv measured at 4 hrs; format: ADME, organism-based; details: in vivo
[3] = Drug uptake in intestine of Balb/c mouse allografted with mouse B16F10 cells using 99mTc(CO)3-labeled compound at 10 to 12 MBq/kg, iv measured at 2 hrs; format: ADME, organism-based; details: in vivo
[4] = Drug uptake in kidney of Balb/c mouse allografted with mouse B16F10 cells using 99mTc(CO)3-labeled compound at 4 to 8 MBq, iv measured at 4 hrs by scintigraphic imaging method; format: ADME, organism-based; details: in vivo
[5] = Drug uptake in liver of Balb/c mouse allografted with mouse B16F10 cells using 99mTc(CO)3-labeled compound at 10 to 12 MBq/kg, iv measured at 4 hrs; format: ADME, organism-based; details: in vivo
[6] = Drug uptake in mouse B16F10 cells using 99mTc(CO)3-labeled compound at 15 to 20 MBq/ml after 30 mins by gamma scintillation counting method; format: ADME, cell-based; details: b16-f10, 0.5 h
B16-F10 [7] = assay: Induction of apoptosis in mouse B16F10 cells assessed as nuclear fragmentation at IC50 after 72 hrs by DAPI staining-based fluorescence microscopic method; format: functional, cell-based
[8] = Drug uptake in lung of Balb/c mouse allografted with mouse B16F10 cells using 99mTc(CO)3-labeled compound at 10 to 12 MBq/kg, iv measured at 2 hrs; format: ADME, organism-based; details: in vivo
[9] = Drug uptake in tumor muscle of Balb/c mouse allografted with mouse B16F10 cells using 99mTc(CO)3-labeled compound at 10 to 12 MBq/kg, iv measured at 2 hrs; format: ADME, organism-based; details: in vivo
[10] = Drug uptake in liver of Balb/c mouse allografted with mouse B16F10 cells using 99mTc(CO)3-labeled compound at 10 to 12 MBq/kg, iv measured at 2 hrs; format: ADME, organism-based; details: in vivo
B16-F10 [11] = assay: Antitumor activity against mouse B16F10 cells allografted in Balb/c mouse assessed as tumor growth inhibition at 25 mg/kg, iv administered thrice weekly for 21 days starting on day 10 post tumor implantation relative to control; format: functional; details: read-out: TGI
[12] = Drug uptake in blood of Balb/c mouse allografted with mouse B16F10 cells using 99mTc(CO)3-labeled compound at 10 to 12 MBq/kg, iv measured at 4 hrs; format: ADME, organism-based; details: in vivo
B16-F10 [13] = assay: Cytotoxicity against mouse B16F10 cells assessed as decrease in cell viability after 72 hrs by MTT assay; format: functional, cell-based; details: B16-F10, 72 h
[14] = Drug uptake in heart of Balb/c mouse allografted with mouse B16F10 cells using 99mTc(CO)3-labeled compound at 10 to 12 MBq/kg, iv measured at 2 hrs; format: ADME, organism-based; details: in vivo
[15] = Drug uptake in spleen of Balb/c mouse allografted with mouse B16F10 cells using 99mTc(CO)3-labeled compound at 10 to 12 MBq/kg, iv measured at 4 hrs; format: ADME, organism-based; details: in vivo
[16] = Stability in saline assessed as parent compond remaining using 99mTc(CO)3-labeled compound after 24 hrs by TLC method; format: physicochemical; details: read-out: Stability
[17] = Drug uptake in blood of Balb/c mouse allografted with mouse B16F10 cells using 99mTc(CO)3-labeled compound at 10 to 12 MBq/kg, iv measured at 2 hrs; format: ADME, organism-based; details: in vivo

Drug uptake [2]: 16.25 % ID/g
Drug uptake [3]: 8.51 % ID/g
Drug uptake [4]: Active
Drug uptake [5]: 15.62 % ID/g
Drug uptake [6]: 42.34%
Drug uptake [8]: 0.4 % ID/g
Drug uptake [9]: 1.71 % ID/g
Drug uptake [10]: 17.65 % ID/g
Drug uptake [12]: 1.58 %ID/ml
Drug uptake [14]: 0.06 % ID/g
Drug uptake [15]: 0.45 % ID/g
remaining at 24 h [16]: ≥ 92%
Drug uptake [17]: 1.79 %ID/ml
SMILES: NCCCC[C@H](NC(=O)CNC(=O)[C@H](Cc1cnc[nH]1)NC(=O)[C@H](CCCCN)NC(=O)[C@H](Cc1ccc(O)cc1)NC(=O)[C@@H](N)Cc1cnc[nH]1)C(=O)N[C@@H](CC(=O)Nc1ccn([C@@H]2O[C@H](CO)[C@@H](O)C2(F)F)c(=O)n1)C(N)=O (H-HYKHGKD(X1)-NH2)
hemolysis at 1 h [1]: 5 to 6%
Activity (B16-F10 [7]): Active
inhibition in vivo at 25 mg/kg (B16-F10 [11]): 62%
IC50 (B16-F10 [13]): 120 nM
